# Results published in patent US8409603B2, “Compositions and methods for tissue engineering, tissue regeneration and wound healing” (University of South Carolina, priority 2009, dated 2013).
# System: lens epithelial cells
# Assay: Toroid (ring) formation by cells added onto polymerized collagen gel
# Format: cell-based
# Conditions: addition to the culture fluid of 3-30 ng
# Protocol: FIG. 1 illustrates examples of toroids generated from EMT-primed lens epithelial cells; a-c) a control series of 3 toroids generated in regular media, d-f) a control series of 3 toroids generated in media containing a control peptide and g-h) a series of 3 toroids generated in media containing a an ACT1 peptide in combination with Tgfb1.
# In a variation on this protocol, cells were added onto an already polymerized gel and the gel was detached after 24 hours of culture. Following a subsequent 24 hours it was noted that quite unlike what was observed when cells were pre-mixed into the gel, cells added post-polymerization always formed into uniform circular rings of repeatable diameter (FIG. 1b). […] Confocal microscopy of rhodamine-phalloidin and nuclear-DAPI stained gels indicated a two-phase structure with cells undergoing recruitment at the outer rim arranging in radial spoke-like arrays (FIG. 1e), whereas cells in on the inner rim organized into a contractile ring (FIG. 1f). […] This experiment was repeated with REC cells (Wada A M, Smith T K, Osler M E, Reese D E, Bader D M. Epicardial/Mesothelial cell line retains vasculogenic potential of embryonic epicardium. Circ Res. 2003 Mar. 21; 92(5):525-31. Epub 2003 Feb. 6, incorporated by reference herein), a rat […] with similar effect. […]
substance,measurement,value
TGF-b,ring size of toroid,predictably altered
